# ± gives the expanded uncertainty stated by the source.
# Conditions: 343.15 K, Liquid, Vibrating tube method
smiles,measurement,setting,value
CCCCC(=O)OCC(COC(=O)CCCC)(COC(=O)CCCC)COC(=O)CCCC [pentaerythritol tetrapentanoate],mass density,5413.1 kPa,982.8 ± 1.2 kg/m3
same,mass density,5435 kPa,982.7 ± 1.2 kg/m3
same,mass density,5461.9 kPa,982.8 ± 1.2 kg/m3
same,mass density,5505.6 kPa,982.8 ± 1.2 kg/m3
same,mass density,5528.3 kPa,982.7 ± 1.2 kg/m3
same,mass density,5555.3 kPa,982.9 ± 1.2 kg/m3
same,mass density,5578.3 kPa,982.9 ± 1.2 kg/m3
same,mass density,5601.1 kPa,982.8 ± 1.2 kg/m3
same,mass density,5652.8 kPa,983 ± 1.2 kg/m3
same,mass density,6775.7 kPa,983.7 ± 1.2 kg/m3
same,mass density,6868.5 kPa,983.8 ± 1.2 kg/m3
same,mass density,7157.9 kPa,984.1 ± 1.2 kg/m3
same,mass density,7189.4 kPa,984.1 ± 1.2 kg/m3
same,mass density,7222 kPa,984.1 ± 1.2 kg/m3
same,mass density,7362.2 kPa,984.3 ± 1.2 kg/m3
same,mass density,7507.8 kPa,984.3 ± 1.2 kg/m3
same,mass density,7543.3 kPa,984.3 ± 1.2 kg/m3
same,mass density,7586.1 kPa,984.4 ± 1.2 kg/m3
same,mass density,7622 kPa,984.5 ± 1.2 kg/m3
same,mass density,7658.5 kPa,984.4 ± 1.2 kg/m3
same,mass density,7695.9 kPa,984.5 ± 1.2 kg/m3
same,mass density,7740.8 kPa,984.5 ± 1.2 kg/m3
same,mass density,7779.3 kPa,984.5 ± 1.2 kg/m3
same,mass density,7819 kPa,984.5 ± 1.2 kg/m3
same,mass density,7858.9 kPa,984.6 ± 1.2 kg/m3
same,mass density,7901.3 kPa,984.7 ± 1.2 kg/m3
same,mass density,7933.4 kPa,984.7 ± 1.2 kg/m3
same,mass density,7965.2 kPa,984.7 ± 1.2 kg/m3
same,mass density,7997.4 kPa,984.8 ± 1.2 kg/m3
same,mass density,8035.4 kPa,984.7 ± 1.2 kg/m3
same,mass density,8067.7 kPa,984.8 ± 1.2 kg/m3
same,mass density,8100.4 kPa,984.6 ± 1.2 kg/m3
same,mass density,8139.1 kPa,984.8 ± 1.2 kg/m3
same,mass density,8172.2 kPa,984.9 ± 1.2 kg/m3
same,mass density,8205.9 kPa,984.8 ± 1.2 kg/m3
same,mass density,8240 kPa,984.8 ± 1.2 kg/m3
same,mass density,8280.4 kPa,985 ± 1.2 kg/m3
same,mass density,8314.6 kPa,984.8 ± 1.2 kg/m3
same,mass density,8349.6 kPa,985 ± 1.2 kg/m3
same,mass density,8390.6 kPa,985.1 ± 1.2 kg/m3
same,mass density,8425.6 kPa,985 ± 1.2 kg/m3
same,mass density,8461.4 kPa,985 ± 1.2 kg/m3
same,mass density,8504.7 kPa,985.1 ± 1.2 kg/m3
same,mass density,8540.9 kPa,985 ± 1.2 kg/m3
same,mass density,8577.6 kPa,985.2 ± 1.2 kg/m3
same,mass density,8620.4 kPa,985.2 ± 1.2 kg/m3
same,mass density,8653.7 kPa,985.2 ± 1.2 kg/m3
same,mass density,8686.4 kPa,985.2 ± 1.2 kg/m3
same,mass density,8725.9 kPa,985.3 ± 1.2 kg/m3
same,mass density,8759 kPa,985.2 ± 1.2 kg/m3
same,mass density,8793.5 kPa,985.3 ± 1.2 kg/m3
same,mass density,8834.4 kPa,985.3 ± 1.2 kg/m3
same,mass density,8868.3 kPa,985.2 ± 1.2 kg/m3
same,mass density,8902.8 kPa,985.3 ± 1.2 kg/m3
same,mass density,8937.8 kPa,985.4 ± 1.2 kg/m3
same,mass density,8979.2 kPa,985.4 ± 1.2 kg/m3
same,mass density,9014.2 kPa,985.4 ± 1.2 kg/m3
same,mass density,9057.6 kPa,985.5 ± 1.2 kg/m3
same,mass density,9093 kPa,985.5 ± 1.2 kg/m3
same,mass density,9128.9 kPa,985.5 ± 1.2 kg/m3
same,mass density,9165.6 kPa,985.6 ± 1.2 kg/m3
same,mass density,9210.7 kPa,985.6 ± 1.2 kg/m3
same,mass density,9247.8 kPa,985.6 ± 1.2 kg/m3
same,mass density,9284.8 kPa,985.6 ± 1.2 kg/m3
same,mass density,9330.2 kPa,985.6 ± 1.2 kg/m3
same,mass density,9369.1 kPa,985.6 ± 1.2 kg/m3
same,mass density,9408.2 kPa,985.8 ± 1.2 kg/m3
same,mass density,9447.9 kPa,985.6 ± 1.2 kg/m3
same,mass density,9495.3 kPa,985.9 ± 1.2 kg/m3
same,mass density,9536.5 kPa,985.8 ± 1.2 kg/m3
same,mass density,9579.2 kPa,985.9 ± 1.2 kg/m3
same,mass density,9627.1 kPa,985.8 ± 1.2 kg/m3
same,mass density,9659.1 kPa,985.9 ± 1.2 kg/m3
same,mass density,9689.8 kPa,986 ± 1.2 kg/m3
same,mass density,9720.2 kPa,986 ± 1.2 kg/m3
same,mass density,9749.7 kPa,986 ± 1.2 kg/m3
same,mass density,9785.3 kPa,986 ± 1.2 kg/m3
same,mass density,9815.5 kPa,986.1 ± 1.2 kg/m3
same,mass density,9845.4 kPa,986.1 ± 1.2 kg/m3
same,mass density,9881.3 kPa,986.2 ± 1.2 kg/m3
same,mass density,9911.4 kPa,986.2 ± 1.2 kg/m3
same,mass density,9942.4 kPa,986.2 ± 1.2 kg/m3
same,mass density,9979.5 kPa,986.2 ± 1.2 kg/m3
same,mass density,10011 kPa,986.2 ± 1.2 kg/m3
same,mass density,10043 kPa,986.1 ± 1.2 kg/m3
same,mass density,10082 kPa,986.4 ± 1.2 kg/m3
same,mass density,10117 kPa,986.1 ± 1.2 kg/m3
same,mass density,10149 kPa,986.3 ± 1.2 kg/m3
same,mass density,10181 kPa,986.3 ± 1.2 kg/m3
same,mass density,10213 kPa,986.3 ± 1.2 kg/m3
same,mass density,10252 kPa,986.3 ± 1.2 kg/m3
same,mass density,10284 kPa,986.3 ± 1.2 kg/m3
same,mass density,10318 kPa,986.4 ± 1.2 kg/m3
same,mass density,10358 kPa,986.4 ± 1.2 kg/m3
same,mass density,10391 kPa,986.4 ± 1.2 kg/m3
same,mass density,10425 kPa,986.5 ± 1.2 kg/m3
same,mass density,10465 kPa,986.6 ± 1.2 kg/m3
same,mass density,10500 kPa,986.5 ± 1.2 kg/m3
same,mass density,10535 kPa,986.6 ± 1.2 kg/m3
same,mass density,10577 kPa,986.5 ± 1.2 kg/m3
same,mass density,10612 kPa,986.6 ± 1.2 kg/m3
same,mass density,10647 kPa,986.6 ± 1.2 kg/m3
same,mass density,10690 kPa,986.5 ± 1.2 kg/m3
same,mass density,10726 kPa,986.8 ± 1.2 kg/m3
same,mass density,10762 kPa,986.7 ± 1.2 kg/m3
same,mass density,10806 kPa,986.8 ± 1.2 kg/m3
same,mass density,10842 kPa,986.8 ± 1.2 kg/m3
same,mass density,10879 kPa,986.8 ± 1.2 kg/m3
same,mass density,10923 kPa,986.9 ± 1.2 kg/m3
same,mass density,10960 kPa,986.9 ± 1.2 kg/m3
same,mass density,10999 kPa,986.9 ± 1.2 kg/m3
same,mass density,11045 kPa,986.9 ± 1.2 kg/m3
same,mass density,11084 kPa,987 ± 1.2 kg/m3
same,mass density,11122 kPa,987.1 ± 1.2 kg/m3
same,mass density,11162 kPa,986.9 ± 1.2 kg/m3
same,mass density,11209 kPa,987 ± 1.2 kg/m3
same,mass density,11248 kPa,987.2 ± 1.2 kg/m3
same,mass density,11296 kPa,987.1 ± 1.2 kg/m3
same,mass density,11336 kPa,987.2 ± 1.2 kg/m3
same,mass density,11377 kPa,987.2 ± 1.2 kg/m3
same,mass density,11417 kPa,987.2 ± 1.2 kg/m3
same,mass density,11467 kPa,987.3 ± 1.2 kg/m3
same,mass density,11508 kPa,987.3 ± 1.2 kg/m3
same,mass density,11551 kPa,987.4 ± 1.2 kg/m3
same,mass density,11602 kPa,987.3 ± 1.2 kg/m3
same,mass density,11645 kPa,987.3 ± 1.2 kg/m3
same,mass density,11689 kPa,987.4 ± 1.2 kg/m3
same,mass density,11740 kPa,987.4 ± 1.2 kg/m3
same,mass density,11784 kPa,987.5 ± 1.2 kg/m3
same,mass density,11828 kPa,987.4 ± 1.2 kg/m3
same,mass density,11881 kPa,987.6 ± 1.2 kg/m3
same,mass density,11926 kPa,987.6 ± 1.2 kg/m3
same,mass density,11972 kPa,987.7 ± 1.2 kg/m3
same,mass density,12028 kPa,987.6 ± 1.2 kg/m3
same,mass density,12076 kPa,987.7 ± 1.2 kg/m3
same,mass density,12126 kPa,987.7 ± 1.2 kg/m3
same,mass density,12187 kPa,987.8 ± 1.2 kg/m3
same,mass density,12237 kPa,987.9 ± 1.2 kg/m3
same,mass density,12270 kPa,988 ± 1.2 kg/m3
same,mass density,12298 kPa,987.8 ± 1.2 kg/m3
same,mass density,12322 kPa,987.9 ± 1.2 kg/m3
same,mass density,12346 kPa,987.8 ± 1.2 kg/m3
same,mass density,12374 kPa,988 ± 1.2 kg/m3
same,mass density,12398 kPa,987.9 ± 1.2 kg/m3
same,mass density,12423 kPa,988 ± 1.2 kg/m3
same,mass density,12452 kPa,987.9 ± 1.2 kg/m3
same,mass density,12476 kPa,988.1 ± 1.2 kg/m3
same,mass density,12501 kPa,988.1 ± 1.2 kg/m3
same,mass density,12530 kPa,988 ± 1.2 kg/m3
same,mass density,12555 kPa,988 ± 1.2 kg/m3
same,mass density,12580 kPa,988 ± 1.2 kg/m3
same,mass density,12610 kPa,988 ± 1.2 kg/m3
same,mass density,12636 kPa,988 ± 1.2 kg/m3
same,mass density,12660 kPa,988.1 ± 1.2 kg/m3
same,mass density,12691 kPa,988.1 ± 1.2 kg/m3
same,mass density,12717 kPa,988.2 ± 1.2 kg/m3
same,mass density,12742 kPa,988.1 ± 1.2 kg/m3
same,mass density,12773 kPa,988.2 ± 1.2 kg/m3
same,mass density,12799 kPa,988.2 ± 1.2 kg/m3
same,mass density,12824 kPa,988.3 ± 1.2 kg/m3
same,mass density,12856 kPa,988.3 ± 1.2 kg/m3

# — the NIST ThermoML archive (doi:10.1021/je060271a)
